# Tests used:
# [1] = target: E3 ubiquitin-protein ligase TRIM33 (Homo sapiens, UniProt Q9UPN9); test: TRIM33(PHD,Bromo.) DiscoverX BROMOscan
# [2] = target: Mu-type opioid receptor (Homo sapiens, UniProt P35372); details: Compound concentration 10.0 uM
# [3] = target: T1, D(3) dopamine receptor (Homo sapiens, UniProt P35462); test: GPCRScan assay: inhibition of D3; set-up: radioligand conc. used [nm] 0.5 – 1.8, parental cells HEKT
# [4] = target: T1, D(3) dopamine receptor; details: Compound concentration 10.0 uM
# [5] = target: Nucleosome-remodeling factor subunit BPTF (Homo sapiens, UniProt Q12830); test: FALZ DiscoverX BROMOscan
# [6] = target: Bromodomain and WD repeat-containing protein 1 (Homo sapiens, UniProt Q9NSI6); test: WDR9(2) DiscoverX BROMOscan
# [7] = target: Bromodomain-containing protein 7 (Homo sapiens, UniProt Q9NPI1); test: BRD7 DiscoverX BROMOscan
# [8] = target: Alpha-1D adrenergic receptor (Homo sapiens) (UniProt P25100); details: Compound concentration 10.0 uM
# [9] = target: Bromodomain-containing protein 2 (Homo sapiens, UniProt P25440); test: BET mutant TR-FRET assay (BRD2 BD2)
# [10] = target: 5-hydroxytryptamine receptor 3A (Homo sapiens) (UniProt P46098); details: Compound concentration 10.0 uM
# [11] = target: Kappa-type opioid receptor (Homo sapiens, UniProt P41145); details: Compound concentration 10.0 uM
# [12] = target: CREB-binding protein (Homo sapiens, UniProt Q92793); test: CREBBP DiscoverX BROMOscan
# [13] = target: 5-hydroxytryptamine receptor 1B (Homo sapiens, UniProt P28222); details: Compound concentration 10.0 uM
# [14] = target: Sigma intracellular receptor 2 (Homo sapiens) (UniProt Q5BJF2); details: Compound concentration 10.0 uM
# [15] = target: Bromodomain-containing protein 1 (Homo sapiens, UniProt O95696); test: BRD1 DiscoverX BROMOscan
# [16] = target: Bromodomain-containing protein 9 (Homo sapiens, UniProt Q9H8M2); test: BRD9 DiscoverX BROMOscan
# [17] = target: Aurora kinase B (Homo sapiens, UniProt Q96GD4); test: (§1) Cross screening panel
# [18] = target: Acetylcholinesterase (Homo sapiens, UniProt P22303); test: as §1
# [19] = target: Potassium voltage-gated channel subfamily A member 5 (Homo sapiens, UniProt P22460); test: as §1
# [20] = target: Alpha-2C adrenergic receptor (Homo sapiens, UniProt P18825); test: as §1
# [21] = target: Sodium channel protein type 5 subunit alpha (Homo sapiens, UniProt Q14524); test: as §1
# [22] = target: Solute carrier organic anion transporter family member 1B1 (Homo sapiens, UniProt Q9Y6L6); test: as §1
# [23] = target: 3',5'-cyclic-AMP phosphodiesterase 4B (Homo sapiens, UniProt Q07343); test: as §1
# [24] = target: Nuclear receptor subfamily 1 group I member 2 (Homo sapiens, UniProt O75469); test: as §1
# [25] = target: Sodium-dependent serotonin transporter (Homo sapiens, UniProt P31645); test: as §1
# [26] = target: Voltage-gated potassium channel, IKs; KCNQ1(Kv7.1)/KCNE1(MinK) (Homo sapiens, UniProt P15382+P51787); test: as §1; format: protein-complex assay
# [27] = as §1
# [28] = target: Muscarinic acetylcholine receptor M2 (Homo sapiens) (UniProt P08172); details: Compound concentration 10.0 uM
# [29] = target: 5-hydroxytryptamine receptor 7 (Homo sapiens) (UniProt P34969); details: Compound concentration 10.0 uM
# [30] = target: Muscarinic acetylcholine receptor M5 (Homo sapiens) (UniProt P08912); details: Compound concentration 10.0 uM
# [31] = target: Beta-2 adrenergic receptor (Homo sapiens, UniProt P07550); details: Compound concentration 10.0 uM
# [32] = target: Peregrin (Homo sapiens, UniProt P55201); test: BRPF1 DiscoverX BROMOscan
# [33] = target: 5-hydroxytryptamine receptor 5A (Homo sapiens) (UniProt P47898); details: Compound concentration 10.0 uM
# [34] = target: Sodium-dependent noradrenaline transporter (Homo sapiens, UniProt P23975); details: Compound concentration 10.0 uM
# T1 sequence (P35462 whole entry): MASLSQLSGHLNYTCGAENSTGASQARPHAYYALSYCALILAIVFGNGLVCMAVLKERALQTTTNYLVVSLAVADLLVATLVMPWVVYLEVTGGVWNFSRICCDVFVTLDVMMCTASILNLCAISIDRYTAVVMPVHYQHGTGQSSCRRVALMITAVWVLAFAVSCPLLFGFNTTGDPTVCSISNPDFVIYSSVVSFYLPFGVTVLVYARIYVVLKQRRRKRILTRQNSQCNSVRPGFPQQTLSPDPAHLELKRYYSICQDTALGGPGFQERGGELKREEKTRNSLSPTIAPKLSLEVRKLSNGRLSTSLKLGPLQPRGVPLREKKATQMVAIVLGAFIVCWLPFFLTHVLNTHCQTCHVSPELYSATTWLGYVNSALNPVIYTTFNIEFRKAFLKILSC
# Potassium voltage-gated channel subfamily A member 5, sequence (P22460 whole entry): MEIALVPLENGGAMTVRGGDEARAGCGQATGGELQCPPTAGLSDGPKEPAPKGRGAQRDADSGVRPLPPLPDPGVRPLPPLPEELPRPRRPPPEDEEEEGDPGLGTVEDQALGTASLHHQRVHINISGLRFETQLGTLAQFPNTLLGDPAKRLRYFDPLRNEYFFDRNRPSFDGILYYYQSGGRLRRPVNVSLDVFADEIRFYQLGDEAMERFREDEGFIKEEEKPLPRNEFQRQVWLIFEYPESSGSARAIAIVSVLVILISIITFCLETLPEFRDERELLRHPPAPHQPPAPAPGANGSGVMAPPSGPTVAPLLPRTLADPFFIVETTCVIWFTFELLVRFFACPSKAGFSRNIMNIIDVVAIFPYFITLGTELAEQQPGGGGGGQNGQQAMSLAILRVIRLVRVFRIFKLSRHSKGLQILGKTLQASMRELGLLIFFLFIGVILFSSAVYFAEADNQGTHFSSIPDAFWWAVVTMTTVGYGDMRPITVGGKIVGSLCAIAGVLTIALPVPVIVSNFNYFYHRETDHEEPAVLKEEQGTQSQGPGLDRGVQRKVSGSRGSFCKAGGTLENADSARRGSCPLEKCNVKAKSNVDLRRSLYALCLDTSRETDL
# 5-hydroxytryptamine receptor 5A (Homo sapiens), sequence (P47898 whole entry): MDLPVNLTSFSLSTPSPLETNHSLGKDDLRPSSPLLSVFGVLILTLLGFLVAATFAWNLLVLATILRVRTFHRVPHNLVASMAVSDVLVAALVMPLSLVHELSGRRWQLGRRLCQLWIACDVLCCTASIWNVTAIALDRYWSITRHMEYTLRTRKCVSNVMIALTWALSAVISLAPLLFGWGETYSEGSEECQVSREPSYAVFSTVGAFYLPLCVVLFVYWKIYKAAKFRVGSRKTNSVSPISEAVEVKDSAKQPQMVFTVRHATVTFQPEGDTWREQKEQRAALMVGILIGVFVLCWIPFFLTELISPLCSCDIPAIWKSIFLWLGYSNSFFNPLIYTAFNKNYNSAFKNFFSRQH
# Alpha-1D adrenergic receptor (Homo sapiens), sequence (P25100 whole entry): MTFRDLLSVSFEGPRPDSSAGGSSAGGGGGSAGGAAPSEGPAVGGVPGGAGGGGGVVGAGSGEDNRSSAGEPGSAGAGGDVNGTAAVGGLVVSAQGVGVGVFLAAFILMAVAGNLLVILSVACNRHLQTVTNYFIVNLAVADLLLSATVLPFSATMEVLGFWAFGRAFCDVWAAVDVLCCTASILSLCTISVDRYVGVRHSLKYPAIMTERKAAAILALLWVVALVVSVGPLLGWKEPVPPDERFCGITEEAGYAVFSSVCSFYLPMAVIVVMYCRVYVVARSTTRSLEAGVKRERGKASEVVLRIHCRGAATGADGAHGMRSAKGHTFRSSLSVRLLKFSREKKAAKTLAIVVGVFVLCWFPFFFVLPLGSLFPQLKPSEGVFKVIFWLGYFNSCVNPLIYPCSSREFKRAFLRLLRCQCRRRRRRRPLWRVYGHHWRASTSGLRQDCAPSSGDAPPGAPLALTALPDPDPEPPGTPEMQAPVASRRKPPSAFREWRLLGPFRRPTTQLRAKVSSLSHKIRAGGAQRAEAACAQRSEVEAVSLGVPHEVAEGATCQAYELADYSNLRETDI
# Bromodomain-containing protein 1, sequence (O95696 whole entry): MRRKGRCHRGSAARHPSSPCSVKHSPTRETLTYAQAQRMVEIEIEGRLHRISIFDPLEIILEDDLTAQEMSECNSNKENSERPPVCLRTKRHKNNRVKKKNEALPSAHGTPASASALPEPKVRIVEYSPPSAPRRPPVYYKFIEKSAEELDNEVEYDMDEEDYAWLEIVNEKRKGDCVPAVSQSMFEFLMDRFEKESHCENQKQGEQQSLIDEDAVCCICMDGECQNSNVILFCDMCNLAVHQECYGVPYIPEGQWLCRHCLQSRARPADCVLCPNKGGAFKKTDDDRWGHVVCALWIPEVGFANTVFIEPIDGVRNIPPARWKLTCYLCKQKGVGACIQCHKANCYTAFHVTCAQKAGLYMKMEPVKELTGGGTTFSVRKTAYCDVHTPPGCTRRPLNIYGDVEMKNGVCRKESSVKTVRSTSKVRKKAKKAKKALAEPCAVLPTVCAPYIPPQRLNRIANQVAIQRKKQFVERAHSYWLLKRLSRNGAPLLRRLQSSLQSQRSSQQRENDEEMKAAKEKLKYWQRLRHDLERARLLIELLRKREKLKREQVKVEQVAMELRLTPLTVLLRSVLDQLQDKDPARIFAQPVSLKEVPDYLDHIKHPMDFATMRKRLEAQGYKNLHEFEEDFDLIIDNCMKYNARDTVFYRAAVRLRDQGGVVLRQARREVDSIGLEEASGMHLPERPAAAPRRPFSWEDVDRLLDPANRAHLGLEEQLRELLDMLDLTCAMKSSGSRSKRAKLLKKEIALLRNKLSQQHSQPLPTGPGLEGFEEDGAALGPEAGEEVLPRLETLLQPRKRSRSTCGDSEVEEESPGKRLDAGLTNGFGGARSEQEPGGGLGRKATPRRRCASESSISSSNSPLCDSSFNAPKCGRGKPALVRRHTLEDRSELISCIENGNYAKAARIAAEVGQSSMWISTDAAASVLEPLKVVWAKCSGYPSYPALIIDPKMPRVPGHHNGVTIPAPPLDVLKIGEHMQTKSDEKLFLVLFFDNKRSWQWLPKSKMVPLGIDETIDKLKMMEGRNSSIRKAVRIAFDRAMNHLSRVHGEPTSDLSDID
# 5-hydroxytryptamine receptor 7 (Homo sapiens), sequence (P34969 whole entry): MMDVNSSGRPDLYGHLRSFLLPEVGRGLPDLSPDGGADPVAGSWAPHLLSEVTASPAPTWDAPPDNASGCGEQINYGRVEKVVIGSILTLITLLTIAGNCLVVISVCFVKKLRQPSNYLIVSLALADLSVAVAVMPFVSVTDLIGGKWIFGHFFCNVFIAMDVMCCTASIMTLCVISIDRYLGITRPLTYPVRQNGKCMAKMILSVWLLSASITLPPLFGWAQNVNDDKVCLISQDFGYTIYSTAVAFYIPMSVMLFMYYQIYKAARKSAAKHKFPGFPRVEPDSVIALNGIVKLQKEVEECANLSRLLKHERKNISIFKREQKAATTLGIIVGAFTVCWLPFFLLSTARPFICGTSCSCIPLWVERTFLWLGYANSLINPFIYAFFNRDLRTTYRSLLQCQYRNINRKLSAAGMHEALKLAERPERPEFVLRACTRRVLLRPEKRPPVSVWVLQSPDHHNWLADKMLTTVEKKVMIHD
# E3 ubiquitin-protein ligase TRIM33, sequence (Q9UPN9 whole entry): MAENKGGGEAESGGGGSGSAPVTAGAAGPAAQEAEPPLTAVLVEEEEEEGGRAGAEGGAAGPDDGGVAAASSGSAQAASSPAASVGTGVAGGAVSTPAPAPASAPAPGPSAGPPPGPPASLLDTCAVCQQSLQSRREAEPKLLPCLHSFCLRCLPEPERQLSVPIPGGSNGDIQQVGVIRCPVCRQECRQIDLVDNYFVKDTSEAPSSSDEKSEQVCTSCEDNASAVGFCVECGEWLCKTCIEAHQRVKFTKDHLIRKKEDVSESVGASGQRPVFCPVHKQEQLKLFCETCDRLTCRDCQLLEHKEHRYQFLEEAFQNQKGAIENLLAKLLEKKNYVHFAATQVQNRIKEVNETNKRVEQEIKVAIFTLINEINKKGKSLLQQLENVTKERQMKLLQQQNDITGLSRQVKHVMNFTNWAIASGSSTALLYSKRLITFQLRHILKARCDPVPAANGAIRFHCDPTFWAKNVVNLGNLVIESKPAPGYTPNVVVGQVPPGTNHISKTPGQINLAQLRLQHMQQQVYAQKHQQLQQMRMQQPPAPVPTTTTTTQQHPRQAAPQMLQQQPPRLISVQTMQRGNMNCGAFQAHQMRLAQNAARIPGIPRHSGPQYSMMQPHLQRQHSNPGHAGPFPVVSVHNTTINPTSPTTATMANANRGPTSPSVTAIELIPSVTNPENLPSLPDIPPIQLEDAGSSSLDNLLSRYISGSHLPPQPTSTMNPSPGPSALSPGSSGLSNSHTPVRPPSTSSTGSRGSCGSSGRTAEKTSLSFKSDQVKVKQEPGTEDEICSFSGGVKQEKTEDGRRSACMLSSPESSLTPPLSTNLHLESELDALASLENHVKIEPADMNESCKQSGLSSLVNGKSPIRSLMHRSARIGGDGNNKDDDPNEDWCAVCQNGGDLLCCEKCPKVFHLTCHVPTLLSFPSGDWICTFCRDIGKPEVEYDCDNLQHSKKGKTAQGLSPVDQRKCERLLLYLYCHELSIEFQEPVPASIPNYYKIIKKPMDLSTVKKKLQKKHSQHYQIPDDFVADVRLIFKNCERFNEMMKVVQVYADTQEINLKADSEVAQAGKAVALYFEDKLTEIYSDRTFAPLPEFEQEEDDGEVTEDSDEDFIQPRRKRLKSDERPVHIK
# Mu-type opioid receptor, sequence (P35372 whole entry): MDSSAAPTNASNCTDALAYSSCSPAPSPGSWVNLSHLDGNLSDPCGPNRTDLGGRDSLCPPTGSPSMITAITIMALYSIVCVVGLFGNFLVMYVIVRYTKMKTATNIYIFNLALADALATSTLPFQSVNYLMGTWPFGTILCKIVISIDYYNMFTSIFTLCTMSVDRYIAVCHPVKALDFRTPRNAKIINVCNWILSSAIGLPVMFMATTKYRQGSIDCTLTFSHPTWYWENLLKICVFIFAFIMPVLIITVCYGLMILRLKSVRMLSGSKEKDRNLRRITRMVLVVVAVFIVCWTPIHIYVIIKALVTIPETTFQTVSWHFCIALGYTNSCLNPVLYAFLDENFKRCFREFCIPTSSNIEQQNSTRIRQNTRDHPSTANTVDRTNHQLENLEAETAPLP
smiles,measurement,setting,value
COCc1nc2cnc3cc(-c4c(C)noc4C)c(OC[C@H]4CCNC4)cc3c2n1[C@H](C)c1ccccc1 [GSK778],Kd,[1],30 µM
same,inhibition,[2],16.9%
same,Ki,[3]; read-out: Ki,0.486 µM
same,Ki,[3]; read-out: pKi (converted),0.407 µM
same,inhibition,[4],62.4%
same,Kd,[5],30 µM
same,Kd,[6],30 µM
same,Kd,[7],30 µM
same,inhibition,[8],17%
same,pIC50,[9],5.5
same,inhibition,[10],69.8%
same,inhibition,[11],15.5%
same,Kd,[12],3.8 µM
same,inhibition,[13],8.66%
same,inhibition,[14],23%
same,Kd,[15],30 µM
same,Kd,[16],30 µM
same,IC50,[17],> 31.6 µM
same,IC50,[18],63.1 µM
same,IC50,[19],> 50.1 µM
same,EC50,[20],> 100 µM
same,IC50,[21],50.1 µM
same,IC50,[22],39.8 µM
same,IC50,[23],39.8 µM
same,EC50,[24],> 50.1 µM
same,IC50,[25],39.8 µM
same,IC50,[26],> 25.1 µM
same,pMEC,[27],< 4
same,inhibition,[28],4.05%
same,inhibition,[29],-5.39%
same,inhibition,[30],24.6%
same,inhibition,[31],18.4%
same,Kd,[32],15 µM
same,inhibition,[33],21.5%
same,inhibition,[34],34.5%

# — ChEMBL document CHEMBL4630907 (2021)
